Experimental data from patent US20110269759A1, “PYRIMIDINE COMPOUNDS AS DELTA OPIOID RECEPTOR MODULATORS” (priority 2009, published 2011).
Read-outs that look alike come from different tables or passages of the source.

Key:
[1] = target: T1, δ-opioid receptor (Mus musculus, UniProt P32300); experiment: [35S]GTPγS δ-opioid receptor functional assay (EC50, relative efficacy, % inhibition); format: biochemical; design: NG108-15 cell membranes were purchased from Applied Cell Sciences (Rockville, Md.); conditions: for inhibition at 10 µM: read-out: GTPγS δ-opioid receptor % Inh @10 μM
T1 sequence (P32300 whole entry): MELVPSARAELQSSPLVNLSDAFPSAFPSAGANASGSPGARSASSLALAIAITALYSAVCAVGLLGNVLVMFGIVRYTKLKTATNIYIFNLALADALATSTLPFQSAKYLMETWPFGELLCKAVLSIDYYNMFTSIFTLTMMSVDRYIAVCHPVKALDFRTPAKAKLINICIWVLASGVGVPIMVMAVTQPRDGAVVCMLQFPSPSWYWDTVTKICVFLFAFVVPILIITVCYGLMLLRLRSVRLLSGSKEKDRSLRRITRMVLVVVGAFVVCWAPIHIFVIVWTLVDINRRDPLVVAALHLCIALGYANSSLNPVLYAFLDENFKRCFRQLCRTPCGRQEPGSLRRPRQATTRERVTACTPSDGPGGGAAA

[2] = target: T1, δ-opioid receptor; experiment: [35S]GTPγS binding assay in NG108-15 cell membranes (delta opioid functional assay), 200 nM screen; format: biochemical; design: NG108-15 cell membranes were purchased from Applied Cell Sciences (Rockville, Md.); host or cells: NG108-15 cell membranes (purchased); conditions: 200 nM compound, relative to calculated max of SNC80 dose response
[3] = target: T2, Delta Opioid Receptor (Mus musculus, UniProt P32300); experiment: NG108-15, 24-well delta opioid receptor binding assay ([3H]naltrindole)
T2 construct: NG108-15 cell membranes were purchased from Applied Cell Sciences (Rockville, Md.); host or cells: NG108-15 cell membranes (purchased)
T2 sequence (P32300 whole entry): as above

[4] = target: T3, Delta Opioid Receptor (Rattus norvegicus, UniProt P33533); experiment: Rat brain delta opioid receptor binding assay ([3H]DPDPE or [3H]naltrindole)
T3 construct: the forebrains were homogenized in Tris buffer in a Teflon®-glass homogenizer; from tissue; host or cells: forebrain of male Wistar rats, particulate membrane preparation
T3 sequence (P33533 whole entry): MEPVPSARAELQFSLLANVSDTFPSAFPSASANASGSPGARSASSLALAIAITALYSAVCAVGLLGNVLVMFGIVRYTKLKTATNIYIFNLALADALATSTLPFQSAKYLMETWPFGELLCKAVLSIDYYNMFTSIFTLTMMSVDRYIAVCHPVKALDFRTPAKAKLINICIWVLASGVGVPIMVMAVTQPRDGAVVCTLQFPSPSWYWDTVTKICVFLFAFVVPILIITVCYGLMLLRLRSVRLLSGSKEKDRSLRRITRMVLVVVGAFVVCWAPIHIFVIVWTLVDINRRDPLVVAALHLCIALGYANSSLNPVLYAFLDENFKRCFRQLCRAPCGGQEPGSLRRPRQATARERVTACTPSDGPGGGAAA

[5] = target: T4, Mu Opioid Receptor (Rattus norvegicus, UniProt P33535); experiment: Rat brain mu opioid receptor binding assay ([3H]DAMGO)
T4 construct: the forebrains were homogenized in Tris buffer in a Teflon®-glass homogenizer; from tissue; host or cells: forebrain of male Wistar rats, particulate membrane preparation
T4 sequence (P33535 whole entry): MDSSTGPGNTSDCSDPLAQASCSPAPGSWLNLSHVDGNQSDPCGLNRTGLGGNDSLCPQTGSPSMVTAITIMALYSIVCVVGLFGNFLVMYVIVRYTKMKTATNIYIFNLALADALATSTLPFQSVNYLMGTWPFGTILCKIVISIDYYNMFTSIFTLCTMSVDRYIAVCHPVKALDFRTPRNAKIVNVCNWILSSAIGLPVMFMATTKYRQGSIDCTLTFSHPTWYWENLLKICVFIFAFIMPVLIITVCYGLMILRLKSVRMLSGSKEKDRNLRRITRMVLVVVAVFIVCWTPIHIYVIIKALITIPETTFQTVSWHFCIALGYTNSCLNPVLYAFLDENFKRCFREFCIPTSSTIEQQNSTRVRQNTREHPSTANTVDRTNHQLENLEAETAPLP

[6] = test system: mice; experiment: Mouse Graded Abdominal Irritant Test (GrAIT); format: in vivo; conditions: 10% Solutol, 30 min pretreatment
Method: Test compound or vehicle was administered s.c. or p.o. to mice. Following the pretreatment time, an i.p. injection of 0.6% of acetic acid in 0.5 mL was administered. Five min after acetic acid administration, mice were placed into clear chambers and were continuously observed for 5 min. Behavioral responses including twisting and elongation of the body that extended through the hindlimbs were counted and averaged for the group of animals over the observation period.

[7] = NG108-15 cell membranes, ~0.2 nM [3H]naltrindole, read-out: δ-binding NG108 cell membrane Ki

## COc1ccc(Oc2cc(-c3cncc(SC)c3)ccc2NC[C@@H]2C[C@@H](F)CN2)cc1 [Cpd 26]
[1]
  EC50: 187 nM
  GTPγS δ-opioid receptor Rel Efficacy: 1.0716
[2]
  GTPγS δ-RelEfficacy @200 nM: 0.7

## COc1ccc(Oc2cc(-c3cccnc3)ccc2NC[C@@H]2CCCN2)cc1 [Cpd 39]
[3]
  Ki: 1.65 nM
[4]
  Ki: 22.1 nM
[5]
  Ki: 3.11 µM
[1]
  EC50: 111 nM
  GTPγS δ-opioid receptor Rel Efficacy: 0.9245
  inhibition at 10 µM: 13.4%

## CCN(C[C@@H]1CCCN1)c1ccc(-c2cncc(F)c2)cc1Oc1ccc(OC)cc1 [Cpd 50]
[3]
  Ki: 23 nM

## COc1ccc(Oc2cc(-c3cncc(F)c3)ccc2NC[C@@H]2CCCN2)cc1 [Cpd 43]
[3]
  Ki: 0.76 nM
[1]
  EC50: 218 nM
  GTPγS δ-opioid receptor Rel Efficacy: 1.0908
[2]
  GTPγS δ-RelEfficacy @200 nM: 0.43

## COc1ccc(Oc2cc(-c3cncc(F)c3)ccc2NC[C@@H]2C[C@@H](F)CN2)cc1 [Cpd 25]
[1]
  EC50: 92.4 nM
  GTPγS δ-opioid receptor Rel Efficacy: 1.0217
[2]
  GTPγS δ-RelEfficacy @200 nM: 0.78

## COc1ccc(Oc2cc(-c3cncc(C#N)c3)ccc2NC[C@@H]2C[C@@H](F)CN2)cc1 [Cpd 24, (2S,4R)-5-[4-[(4-Fluoro-pyrrolidin-2-ylmethyl)-amino]-3-(4-methoxy-phenoxy)-phenyl]-nicotinonitrile]
[1]
  EC50: 46.1 nM
  GTPγS δ-opioid receptor Rel Efficacy: 1.0158
[2]
  GTPγS δ-RelEfficacy @200 nM: 1.01

## COc1ccc(Oc2cc(-c3cncc(C#N)c3)ccc2NC[C@@H]2CCCN2)cc1 [Cpd 44]
[3]; [7]
  Ki: 0.436 nM
[1]
  GTPγS δ-opioid receptor Rel Efficacy: 1.1554
[1]; read-out: GTPγS δ-opioid receptor EC50
  EC50: 118 nM
[2]
  GTPγS δ-RelEfficacy @200 nM: 0.45

## CCN(CC)C(=O)/C=C/c1ccc(NC[C@@H]2CCCN2)c(Oc2ccc(OC)cc2)c1 [Cpd 1, (2E)-N,N-Diethyl-3-[3-(4-methoxyphenoxy)-4-{[(2S)-pyrrolidin-2-ylmethyl]amino}phenyl]prop-2-enamide]
[4]
  Ki: 6.08 nM
[5]
  Ki: 3.37 µM
[6]; 30 mg/kg s.c.
  # abdominal stretches (cpd): 10.9
[1]
  EC50: 109 nM
  GTPγS δ-opioid receptor Rel Efficacy: 0.8328
  inhibition at 10 µM: 2.26%

## CCN(CC)C(=O)c1ccc(NC[C@@H]2CCCN2)c(Oc2ccc(OC)cc2)c1 [Cpd 10]
[4]; rat forebrain membranes, 0.25 nM [3H]naltrindole, read-out: δ-binding (Naltrindole ligand) Ki
  Ki: 936 nM
[5]
  Ki: 0.936 µM
[6]; 30 mg/kg p.o.
  # abdominal stretches (cpd): 19
[6]; 30 mg/kg s.c.
  # abdominal stretches (cpd): 11
[6]; 100 mg/kg p.o.
  # abdominal stretches (cpd): 17.9
[6]; 300 mg/kg p.o.
  # abdominal stretches (cpd): 21.2

## COc1ccc(Oc2cc(-c3cncnc3)ccc2NC[C@@H]2CCCN2)cc1 [Cpd 42]
[3]; [7]
  Ki: 1.39 nM
[2]
  GTPγS δ-RelEfficacy @200 nM: 0.39

## CCN(C[C@@H]1CCCN1)c1ccc(-c2cncnc2)cc1Oc1ccc(OC)cc1 [Cpd 51]
[3]; [7]
  Ki: 77 nM
